Reference: patent publication US5306808A, “Peptide derivatives having vasodilating activity” (Takeda Chemical Industries, Ltd., priority 1991, dated 1994)
Where a SMILES comes first, the peptide text is derived from it. Bridges are numbered along the chain shown (N, C = ends). Where no end group is shown, it is not given here. [ ]: non-standard residue; d: D form. tBuAla = CC(C)(C)C[C@H](N)C(=O)O

Legend:
endothelin receptor = assay: Assay of affinity for receptor (I125-ET-1 binding to porcine myocardial membrane fraction); settings: ET-1 = 100
Method: A membrane fraction prepared from the porcine heart was diluted to 0.15 mg/ml by using a buffer solution [PBS (pH 7.4) containing 0.5 mM CaCl2, 1.0 mM MgCl2, 0.02% NaN3, 0.1% BSA (fraction V, Sigma), 0.1 mM PMSF and 0.1 μg/ml pepstatin (binding buffer)] for assay, and 100 μl of the resulting suspension of the membrane fraction was poured into each assay tube to use for assay. To this suspension of the membrane fraction were added 2 μl of an endothelin-1 solution labeled with 5 μM radioactive iodine. Further, 3 μl of a test peptide solution was added thereto, followed by maintenance at a temperature of 25° C. for 1 hour. Then, the resulting suspension was diluted with 900 μl of the buffer solution for assay cooled with ice, and thereafter separated into a supernatant and a precipitate by centrifugation at 12,000×g for 10 minutes. Cell membranes and an endothelin receptor embedded therein were contained in the precipitate, and radioactive iodine-labeled endothelin combined with the receptor was also recovered in the precipitate. Accordingly, the amount of radioactive iodine-labeled endothelin combined with the endothelin receptor was determined by measuring the amount of radioactive iodine contained in the precipitate with a gamma-ray counter. Compounds in which the affinity for the endothelin receptor is high and the maximum constriction is not high are antagonists. Contrary to this, compounds in which the affinity for the endothelin receptor is high and the maximum constriction is high are agonists.

porcine coronary artery = format: cell-based; settings: for Constrictor activity (Relative potency): ET-1 = 100; for Maximum Constriction (% 60 mM KCl): normalized to constriction response to 60 mM KCl
Method: Each of helical strips 2 mm×15 mm prepared from the coronary right ramus circumflexus from which the adventitial connective tissues and the endothelial cells were removed was set to each of 4 ml organ baths. Its tension was detected by a force displacement transducer UL-10GR (Minebea), and recorded by a polygraph (NEC Sanei). The organ baths were maintained at 37° C., and filled with a Krebs-Henseleit solution (composition:118 mM NaCl, 4.7 mM KCl, 2.5 mM CaCl2, 1.2 mM KH2 PO4, 25.0 mM NaHCO3, 1.2 mM MgSO4, 10.0 mM glucose) gassed with 95% O2 and 5% CO2.
A tension of 1.25 to 1.5 g was applied to each of the strips, followed by equilibration for 1.5 hours. 60 mM KCl was repeatedly applied thereto at intervals of 30 minutes until the constriction response became constant. After additional equilibration for 1.5 hours, a sample for assay was given. The constriction of the strips was normalized by the constriction response of the individual strips to 60 mM KCl and statistically processed.
(2) As to the antagonist property or the agonist property of the peptide derivatives of present invention to endothelin, the affinity for an endothelin receptor and the constrictor activity to porcine coronary smooth muscles (according to the method described in (1) described above) were assayed. The affinity for the receptor was assayed by the following method.

In the case of “[Val^3,Ala^11 ]-ET-1 (CSVSSLMDKEAVYFCHLDIIW; ends and bridges not checked; cysteine pairing not given here; UniProt P05305 53-73, looked up, variant C3V C11A) [Example 41]”, the “Receptor binding activity (Relative potency)” value (endothelin receptor) is reported as 4.5, the “Constrictor activity (Relative potency)” value (porcine coronary artery) is reported as 73 and the “Maximum Constriction (% 60 mM KCl)” value (porcine coronary artery) is reported as 130 % 60 mM KCl.

With `CC[C@H](C)[C@H](NC(=O)[C@H](Cc1ccccc1)NC(=O)[C@H](CC(C)C)NC(=O)[C@H](Cc1c[nH]cn1)NC(=O)[C@@H]1CSSC[C@H](N)C(=O)N[C@@H](CO)C(=O)N[C@H]2CSSC[C@H](NC(=O)[C@H](CCC(=O)O)NC(=O)[C@H](CCCCN)NC(=O)[C@H](CC(=O)O)NC(=O)[C@H](CCSC)NC(=O)[C@H](CC(C)C)NC(=O)[C@H](CO)NC(=O)[C@H](CO)NC2=O)C(=O)N[C@@H](C(C)C)C(=O)N[C@@H](Cc2ccc(O)cc2)C(=O)N[C@@H](Cc2ccccc2)C(=O)N1)C(=O)N[C@H](C(=O)N[C@@H](Cc1c[nH]c2ccccc12)C(=O)O)[C@@H](C)CC` [Example 33, [Phe^18]-ET-1] (H-CSCSSLMDKECVYFCHLFIIW-OH; disulfide 1-15, 3-11) the “Receptor binding activity (Relative potency)” value (endothelin receptor) was 2.4, the “Constrictor activity (Relative potency)” value (porcine coronary artery) was under 0.1 and the “Maximum Constriction (% 60 mM KCl)” value (porcine coronary artery) was 0 % 60 mM KCl.

With `CC[C@H](C)[C@H](NC(=O)[C@H](C)NC(=O)[C@H](CC(C)C)NC(=O)[C@H](Cc1c[nH]cn1)NC(=O)[C@@H]1CSSC[C@H](N)C(=O)N[C@@H](CO)C(=O)N[C@@H](C)C(=O)N[C@@H](CO)C(=O)N[C@@H](CO)C(=O)N[C@@H](CC(C)C)C(=O)N[C@@H](CCSC)C(=O)N[C@@H](CC(=O)O)C(=O)N[C@@H](CCCCN)C(=O)N[C@@H](CCC(=O)O)C(=O)N[C@@H](C)C(=O)N[C@@H](C(C)C)C(=O)N[C@@H](Cc2ccc(O)cc2)C(=O)N[C@@H](Cc2ccccc2)C(=O)N1)C(=O)N[C@H](C(=O)N[C@@H](Cc1c[nH]c2ccccc12)C(=O)O)[C@@H](C)CC` [Example 21, [Ala^3,11,18]-ET-1] (H-CSASSLMDKEAVYFCHLAIIW-OH; disulfide 1-15) the “Receptor binding activity (Relative potency)” value (endothelin receptor) was 1.59, the “Constrictor activity (Relative potency)” value (porcine coronary artery) was under 0.1 and the “Maximum Constriction (% 60 mM KCl)” value (porcine coronary artery) was 6 % 60 mM KCl.

With `CC[C@H](C)[C@H](NC(=O)[C@H](CC(C)(C)C)NC(=O)[C@H](CC(C)C)NC(=O)[C@H](Cc1c[nH]cn1)NC(=O)[C@@H]1CSSC[C@H](N)C(=O)N[C@@H](CO)C(=O)N[C@H]2CSSC[C@H](NC(=O)[C@H](CCC(=O)O)NC(=O)[C@H](CCCCN)NC(=O)[C@H](CC(=O)O)NC(=O)[C@H](CCSC)NC(=O)[C@H](CC(C)C)NC(=O)[C@H](CO)NC(=O)[C@H](CO)NC2=O)C(=O)N[C@@H](C(C)C)C(=O)N[C@@H](Cc2ccc(O)cc2)C(=O)N[C@@H](Cc2ccccc2)C(=O)N1)C(=O)N[C@H](C(=O)N[C@@H](Cc1c[nH]c2ccccc12)C(=O)O)[C@@H](C)CC` [Example 45, [γ-Leu^18]-ET-1] (H-CSCSSLMDKECVYFCHL[tBuAla]IIW-OH; disulfide 1-15, 3-11) the “Receptor binding activity (Relative potency)” value (endothelin receptor) was 1.0, the “Constrictor activity (Relative potency)” value (porcine coronary artery) was under 0.1 and the “Maximum Constriction (% 60 mM KCl)” value (porcine coronary artery) was 3 % 60 mM KCl.

`CC[C@H](C)[C@H](NC(=O)[C@H](CC(=O)O)NC(=O)[C@H](CC(C)C)NC(=O)[C@H](Cc1c[nH]cn1)NC(=O)[C@@H]1CSSC[C@H](N)C(=O)N[C@@H](CO)C(=O)N[C@H]2CSSC[C@H](NC(=O)[C@H](CCC(=O)O)NC(=O)[C@H](CCCCN)NC(=O)[C@H](CC(=O)O)NC(=O)[C@H](CCSC)NC(=O)[C@H](CC(C)C)NC(=O)[C@H](CO)NC(=O)[C@H](CO)NC2=O)C(=O)N[C@@H](C(C)C)C(=O)N[C@@H](Cc2ccc(O)cc2)C(=O)N[C@@H](Cc2ccccc2)C(=O)N1)C(=O)N[C@H](C(=O)N[C@@H](Cc1c[nH]c2ccccc12)C(=O)O)[C@@H](C)CC` [ET-1, endothelin-1, reference compound] showed an EC50 (porcine coronary artery; read-out: EC50 (% KCL), concentration which induces 50% of the constriction due to 60 mM KCl) of 1.6 nM.
